From patent US20120190613A1, “ECHINOCANDIN DERIVATIVES” (priority 2009, published 2012)
≈ marks a conversion by molar mass, not a printed value. Marks after values point to notes of the source that are not given here.

Columns and labels:
[1] = test system: C. albicans 104 ATCC 90028; test: MIC by broth microdilution against C. albicans; format: cell-based; conditions: 48 hr
Method: (§1) MIC values (μg/mL) of echinocandin class compounds of the invention against various Candida and Aspergillus species were obtained as follows. Test organisms were obtained from the American Type Culture Collection (Manassas, Va.). The isolates were maintained at −80 ° C., then thawed and sub-cultured one day prior to testing (seven days for Aspergillus strains).
(§2) The mouse serum was heat-inactivated for 30 minutes at 56° C., and filtered through a 0.2 μm low protein binding filter unit prior to use.
(§3) MIC values were determined using broth microdilution. The wells of the daughter plates ultimately contained 180 μL of RPMI-1640 medium with and without mouse serum, 10 μL of drug solution, and 10 μL of yeast or fungal inoculum.
(§4) Prior to susceptibility testing, fungal isolates were removed from frozen storage, thawed at room temperature, and subcultured to Potato Dextrose Agar. The Candida strains were incubated overnight at 35° C. and the Aspergillus strains for 7 days at 25° C. Yeast colonies were inoculated into sterile saline and adjusted to the turbidity of a 0.5 McFarland standard. Inoculums from Aspergillus strains were prepared by washing the surface of an agar slant with 1 mL of sterile saline containing 0.05% of Tween 20. The resulting colloidial suspensions were adjusted to an optical density of 0.09 to 0.11 at λ 625 nm.
(§5) Both the yeast and filamentous fungus suspensions were further diluted 1:100 in RPMI-1640 medium and dispensed into sterile reservoirs and used to inoculate the daughter plates. 10 μL of standardized inoculum was delivered into each well. This yielded a final cell concentration in the daughter plates of approximately 2.5×10^3 colony-forming units/mL. Plates were incubated at 35° C. for approximately 48 hr.
(§6) Following incubation, microplates were viewed from the bottom using a plate viewer.

A. flavus 626 ATCC 64025 = test: MIC by broth microdilution against A. flavus; format: cell-based; conditions: 48 hr, growth reduction of 50%
Method: as §1, §2, §3, §4, §5, §6

[2] = test system: C. parapsilosis 630 ATCC 90018; test: MIC by broth microdilution against C. parapsilosis; format: cell-based; conditions: 48 hr
Method: as §1, §2, §3, §4, §5, §6

C. albicans R303 = test: Mouse candidiasis infection model, C. albicans density in kidneys; format: in vivo, female CD-1 mice; conditions: First run; for Difference from 24-hr control / Mean log10 CFU/kidneys (±SD): kidneys at 24 hr; for Mean log10 CFU/kidneys (±SD): neutropenic mice
Method: The objective of these studies was to evaluate the efficacy of test compounds in the mouse candidiasis infection model.
The strain, C. albicans R303 was transferred from frozen storage onto Sabauroud dextrose agar (SDA) plates and grown for ˜24 hr at 35° C. The inoculum was prepared by transferring colonies from the plate to phosphate buffered saline (PBS) and the concentration adjusted to 10^6 CFU/mL with the aid of a spectrophotometer. The stock was diluted 1:9 to prepare the inoculum. Prior to each run the concentration was verified using the dilution plate count method.
The female CD-1 mice used in this study were obtained from Charles River Laboratories, Portage, MI. The animals were approximately seven-weeks-old at the start of the study and weighed about 16-26 g.
In one approach, mice were made neutropenic with IP injections of cyclophosphamide (150 mg/kg in 10 mL/kg) at 4 and 1 day before inoculation. Each animal was inoculated with the appropriate concentration by injecting 0.1 mL of inoculum into a tail vein. The test compounds were administered IP at 2 hr after infection.
The kidneys were collected from four mice in control group 1 (untreated) at 2 hr after infection, and from the remaining mice in the study at 24 hr after infection. Kidneys were removed aseptically from each mouse and were combined in a sterile tube. An aliquot (2 mL) of sterile PBS was added to each tube and the contents homogenized with a tissue homogenizer (Polytron 3100). Serial dilutions of the tissue homogenates were conducted and 0.1 mL aliquots were spread on SDA plates and the plates incubated at 35° C. overnight. The CFU/kidneys were determined from colony counts. Data were analyzed using one-way ANOVA with the Tukey-Kramer Multiple Comparisons Test (GraphPad InStat version 3.06, GraphPad Software, San Diego, Calif.).
Treatments were administered at 2 hr after infection with 2.1×10^5 CFU/mL of the organism. Data are the means of four mice.
Treatments were administered at 2 hr after infection with 6.4×10^5 CFU/mL of the organism. Data are the means of four mice.
Treatments were administered at 2 hr after infection with 3.8×10^5 CFU/mL of the organism. Data are the means of four mice.
Treatments were administered at 2 hr after infection with 3.8×10^5 CFU/rnL of the organism. Data are the means of four mice.

[3] = 1 mg/kg IP 2 hr after infection
[4] = 5 mg/kg IP 2 hr after infection

Row | Structure (SMILES) | MIC ([1]; 0% mouse serum) [µg/mL] | MIC ([1]; 50% mouse serum) [µg/mL] | MIC (A. flavus 626 ATCC 64025; 0% mouse serum) [µg/mL] | MIC (A. flavus 626 ATCC 64025; 50% mouse serum) [µg/mL] | MIC ([2]; 0% mouse serum) [µg/mL] | MIC ([2]; 50% mouse serum) [µg/mL] | Difference from 24-hr control (C. albicans R303; [3]) [ns log10 CFU/kidneys] | Mean log10 CFU/kidneys (±SD) (C. albicans R303; [3]) [log10 CFU/kidneys] | Difference from 24-hr control (C. albicans R303; [4]) | Mean log10 CFU/kidneys (±SD) (C. albicans R303; [4]) [log10 CFU/kidneys] | Reduction of yeast density in kidneys (C. albicans R303; 5 mg/kg dose, versus 24-hr infected control) [logs]
1 | CCCCCOc1ccc(-c2ccc(-c3ccc(C(=O)NC4CC(O)C(OCCOCCOCCOCCOC)NC(=O)C5C(O)C(C)CN5C(=O)C(C(C)O)NC(=O)C(C(O)C(O)c5ccc(O)cc5)NC(=O)C5CC(O)CN5C(=O)C(C(C)O)NC4=O)cc3)cc2)cc1 (stereo not drawn) [Compound 5] | 2 (≈ 1.5 µM) | 2 (≈ 1.5 µM) | 0.125 (≈ 0.094 µM) | 0.5 (≈ 0.376 µM) | >16 | >16 | 0.00 | 4.77 ± 0.06 | −1.76*** log10 CFU/kidneys | 3.01 ± 0.41 | 1.76
2 | CCCCCOc1ccc(-c2ccc(-c3ccc(C(=O)NC4CC(O)C(OCCCCCCOCCOCCOCCOCCOCCOCCOCCOC)NC(=O)C5C(O)C(C)CN5C(=O)C(C(C)O)NC(=O)C(C(O)C(O)c5ccc(O)cc5)NC(=O)C5CC(O)CN5C(=O)C(C(C)O)NC4=O)cc3)cc2)cc1 (stereo not drawn) [Compound 7] | 2 (≈ 1.28 µM) | >16 | 0.25 (≈ 0.16 µM) | 2 (≈ 1.28 µM) | >16 | >16 | 0.50 | 5.27 ± 0.17 | 0.31 ns log10 CFU/kidneys | 5.08 ± 0.19 | –
